Patent publication US6780995B2, “Activated iododerivatives for the treatment of cancer and aids” (Isotechnika Inc., priority 1997, dated 2004)
Where two headings read alike, the source gives them in different places.

Legend:
P388 cells = test: IC50 assay (XTT), inhibition of cell proliferation and growth, P388; type: cell-based; details: P388 murine leukemia cell line, XTT dye conversion, read-out: IC50 Concentrations, P388
Procedure: (§1) Cell culture: The human cell lines were propagated under sterile conditions in RPMI 1640 (CellGrow) with 10% fetal bovine serum (Hyclone), 2 mM L-glutamine, and sodium bicarbonate (complete medium) and incubated at 37° C. in HEPA-filtered Sterilcult CO2 tissue culture incubators (Forma) with 5% CO^2 and 95% humidity (Table 1). The murine leukemia cell lines were propagated in Dulbecco's MEM media with 10% equine serum (Hyclone), 2 mM L-glutamine, and sodium bicarbonate (complete medium) and incubated as described. The cells were subcultured twice weekly and used in experiments. The culture was screened for mycoplasma contamination using GeneProbe™ (Fisher) and positive cultures were cured of contaminants over three passages using constant treatment with BM-Cyclin™ antibiotic combination (Boehringer Mannheim). Only cultures confirmed as mycoplasma free were used in testing compounds for anticellular activity.
(§2) The test compounds were stored at 4° C. under light protected conditions. The test compounds were weighed and dissolved in DMSO. The dissolved compounds were then serially diluted in warm medium (RPMI 1640 or Dulbecco's MEM) under constant mixing to minimize precipitation. The positive control drug doxorubicin was diluted in water followed by dilution in media to achieve a final concentration of 200 nM.
(§3) For all experiments, the cells were harvested and centrifuged to remove the media, and suspended in fresh completed medium. Samples were taken to determine cell density. The cell count was determined with a Coulter Model Z1 cell counter and viability was measured with propidium iodide staining followed by analysis on a Coulter EPPICS Elite Flow cytometer. The cell samples sere adjusted with complete medium to a density of 5×10^4/mL for adherent cell lines and 1×10^5/mL for suspension lines. Tissue culture cluster plates (96 well, cat. No. 3595 Costar for adherent human lines and cat No. 25850 Corning for murine leukemias) were seeded with 100 μL cells and incubated as described. Replicate groups of plates were set up for each line to accommodate the exposure options for single agents and combinations. For each dilution 8 wells (100 μL samples of cells) were treated with 100 μL of dosing solution one day after plating. Each cluster plate contained a cell control (8 wells, mock-treated with complete medium), a medium control (3 wells with medium used to subtract out signal generated by media conditions), and an air blank (1 well, for calibrating the plate reader).
(§4) Anticellular effects of the murine leukemia cell lines were assessed with the XTT dye conversion assay which is more suited to suspension cultures. On the day of analysis XTT[2,3-bis(2-methoxy-4-nitro-5-sulfophenyl)-5-[(phenylamino)carbenyl]-2H-tetrazolium hydroxide, inner salt, sodium salt (Sigma)] was weighed out and dissolved at 1 mg/mL in media. PMS (phenazine methosulfate) was prepared at 5 mM in PBS (phosphate buffered saline) and stored as a stock solution 4° C. The PMS was mixed with dissolved XTT to a final concentration of 0.025 mM. Sample wells were treated with 50 μL of the XTT solution and the plates were incubated for four hours at 37° C. to allow for conversion into the liquid soluble formazan product. After the incubation period the reaction was stopped by adding 10 μL of 10% SDS solution per well and the wells contents of each plate were mixed by agitation. The absorbancy of formazan in each monolayer was measured at 450 nm (620 nm reference beam) on a Denley Anthos 2001 microplate reader. The data were transferred via the ARCOM software capture program into Lotus 1-2-3 for processing.
(§5) Using the procedures described above, concentrations of the Example compounds necessary to inhibit cell proliferation and growth by 50% (1C50 values) were determined in the test cell lines.

SK-OV-3 cells = test: IC50 assay, inhibition of cell proliferation and growth, SK-OV-3; type: cell-based, human; details: SK-OV-3 ovarian adenocarcinoma cell line, neutral red or crystal violet, read-out: IC50 Concentrations, SK-OV-3
Procedure: as §1, §2, §3
(§6) Anticellular effects of the compounds for the adherent cell lines were assessed with neutral red dye. On the day of analysis, the media was removed from sample cell monolayers and replaced with 0.1 mL of neutral red solution (0.5% neutral red, HBSS:RPMI 1640 (1:1), 0.05 M HEPES, pH 7.2). After incubation of the samples at 37° C. for 1 hour the excess dye was removed with blotting and the monolayers were washed twice with 0.85% NaCl solution (0.1 mL per wash). The cell associated dye was extracted by adding 0.2 mL of a 0.1 M NaH2PO4:ethanol (1:1) solution/well followed by incubation for 1 hour at 35° C. The absorbency of neutral red in each monolayer was measured at 550 nm (620 nm reference beam) on a Denley Anthos 2001 microplate reader. The data were transferred via the ARCOM software capture program in Lotus 1-2-3 for processing.
(§7) In assays where technical difficulties due to crystalization of the neutral red occurred the crystal violet staining procedure was employed to measure the amount of cells were left on the plate. Crystal violet staining solution [0.5% crystal violet (w/v), 50% methanol (v/v), 45% saline (v/v), and 5% formalin (v/v)] were prepared on the day of staining. After the media was removed from the sample wells, two drops of crystal violet stain were added to each well and the samples were incubated at ambient temperature for 10 minutes. […]

M14 cells = test: IC50 assay, inhibition of cell proliferation and growth, M14; type: cell-based, human; details: M14 melanoma cell line, neutral red or crystal violet, read-out: IC50 Concentrations, M14
Procedure: as §1, §2, §3, §6, §7

RPMI 8226 cells = test: IC50 assay, inhibition of cell proliferation and growth, RPMI 8226; type: cell-based; details: Homo sapiens; RPMI 8226 myeloma cell line; read-out: IC50 Concentrations, RPM 18226
Procedure: as §1, §2, §3, §5

COLO 205 cells = test: IC50 assay, inhibition of cell proliferation and growth, COLO 205; type: cell-based, human; details: COLO 205 colon adenocarcinoma cell line, neutral red or crystal violet, read-out: IC50 Concentrations, COLO 205
Procedure: as §1, §2, §3, §6, §7

B16 cells = test: IC50 assay, inhibition of cell proliferation and growth, B16; type: cell-based; details: B16 murine melanoma cell line, neutral red or crystal violet, read-out: IC50 Concentrations, B16
Procedure: as §1, §2, §3, §6, §7

L1210 cells = test: IC50 assay (XTT), inhibition of cell proliferation and growth, L1210; type: cell-based; details: L1210 murine leukemia cell line, XTT dye conversion, read-out: IC50 Concentrations, L1210
Procedure: as §1, §2, §3, §4, §5

SK-MEL-5 cells = test: IC50 assay, inhibition of cell proliferation and growth, SK-MEL-5; type: cell-based, human; details: SK-MEL-5 melanoma cell line, neutral red or crystal violet, read-out: IC50 Concentrations, SK MEL-5
Procedure: as §1, §2, §3, §6, §7

MCF7 cells = test: IC50 assay, inhibition of cell proliferation and growth, MCF7; type: cell-based, human; details: MCF7 breast adenocarcinoma cell line, neutral red or crystal violet, read-out: IC50 Concentrations, MCF 7
Procedure: as §1, §2, §3, §6, §7

A549 cells = test: IC50 assay, inhibition of cell proliferation and growth, A549; type: cell-based, human; details: A549 bronchogenic cell line, neutral red or crystal violet, read-out: IC50 Concentrations, A 549
Procedure: as §1, §2, §3, §6, §7

Molecule | IC50 (P388 cells; Mus musculus) [µM] | IC50 (SK-OV-3 cells; Homo sapiens) [µM] | IC50 (M14 cells; Homo sapiens) [µM] | melting point [°C] | IC50 (RPMI 8226 cells) [µM] | IC50 (COLO 205 cells; Homo sapiens) [µM] | IC50 (B16 cells; Mus musculus) [µM] | IC50 (L1210 cells; Mus musculus) [µM] | IC50 (SK-MEL-5 cells; Homo sapiens) [µM] | IC50 (MCF7 cells; Homo sapiens) [µM] | IC50 (A549 cells; Homo sapiens) [µM] | IC50 (P388 cells) [µM] | IC50 (SK-OV-3 cells) [µM] | IC50 (M14 cells) [µM] | IC50 (COLO 205 cells) [µM] | IC50 (B16 cells) [µM] | IC50 (L1210 cells) [µM] | IC50 (SK-MEL-5 cells) [µM] | IC50 (MCF7 cells) [µM] | IC50 (A549 cells) [µM]
CCOC(=O)c1sc(NC(=O)c2cc([N+](=O)[O-])ccc2I)nc1C [Ref. No. 16] | 11.2 | 41.2 | 37.3 | 211 to 212 | 10.6 | 31.2 | 7.93 | 41.1 | 41.7 | 34.3 | 30.1 | – | – | – | – | – | – | – | – | –
O=C(Nc1nnc(C(F)(F)F)s1)c1cc([N+](=O)[O-])ccc1I [Ref. No. 18] | 12.8 | 73 | 27.3 | 219 to 221 | 16.7 | 41.3 | 20.8 | 28.4 | 28.8 | 24 | 15.7 | – | – | – | – | – | – | – | – | –
Cc1ccc(-c2csc(NC(=O)c3cc([N+](=O)[O-])ccc3I)n2)cc1 [Ref. No. 19, 2(2′-Iodo-5′-Nitro-Benzamido)-4-tolyl-Thiazole] | 2.43 | 33.2 | 14.4 | 244 to 248 | 11.8 | 18.2 | 5.15 | 13.5 | 51.3 | 35.5 | 163 | – | – | – | – | – | – | – | – | –
Cc1csc(NC(=O)c2cc([N+](=O)[O-])ccc2I)n1 [Ref. No. 21, 2-(2′-Iodo-5′-Nitro-Benzamido)-4-Methyl-Thiazole] | 3.44 | 15.7 | 13.2 | – | 3.33 | 5.59 | 5.13 | 12.8 | 15 | 12.5 | 43.7 | – | – | – | – | – | – | – | – | –
Cc1cnc(NC(=O)c2cc([N+](=O)[O-])ccc2I)s1 [Ref. No. 22, 2(2′-Iodo-5′-Nitro-Benzamido)-5-Methyl-Thiazole] | 3.64 | 16.1 | 14.5 | – | 12.7 | 13.5 | 6.2 | 12.8 | 15.3 | 14.8 | 45.2 | – | – | – | – | – | – | – | – | –
O=C(NC1=NCCS1)c1cc([N+](=O)[O-])ccc1I [Ref. No. 23, 2-(2′-Iodo-5′-Nitro-Benzamido)-2-Thiazoline] | 353 | > 500 | 150 | 176 to 179 | 237 | 81.9 | 129 | > 500 | 125 | 162 | > 500 | – | – | – | – | – | – | – | – | –
N-(4′-Pyridyl)-2-Iodo-5-Nitrophenyl Hydrazide [Ref. No. 10] | – | – | – | – | – | – | – | – | – | – | – | > 18.5 | 361 | > 500 | 441 | 301 | > 18.5 | > 500 | > 500 | > 500
